From patent US20080015237A1 (ASTRAZENECA AB, priority 2006, published 2008) come the findings set out here.

Structures are written as SMILES.

Sequence of human Kv1.5 channel (P22460 whole entry): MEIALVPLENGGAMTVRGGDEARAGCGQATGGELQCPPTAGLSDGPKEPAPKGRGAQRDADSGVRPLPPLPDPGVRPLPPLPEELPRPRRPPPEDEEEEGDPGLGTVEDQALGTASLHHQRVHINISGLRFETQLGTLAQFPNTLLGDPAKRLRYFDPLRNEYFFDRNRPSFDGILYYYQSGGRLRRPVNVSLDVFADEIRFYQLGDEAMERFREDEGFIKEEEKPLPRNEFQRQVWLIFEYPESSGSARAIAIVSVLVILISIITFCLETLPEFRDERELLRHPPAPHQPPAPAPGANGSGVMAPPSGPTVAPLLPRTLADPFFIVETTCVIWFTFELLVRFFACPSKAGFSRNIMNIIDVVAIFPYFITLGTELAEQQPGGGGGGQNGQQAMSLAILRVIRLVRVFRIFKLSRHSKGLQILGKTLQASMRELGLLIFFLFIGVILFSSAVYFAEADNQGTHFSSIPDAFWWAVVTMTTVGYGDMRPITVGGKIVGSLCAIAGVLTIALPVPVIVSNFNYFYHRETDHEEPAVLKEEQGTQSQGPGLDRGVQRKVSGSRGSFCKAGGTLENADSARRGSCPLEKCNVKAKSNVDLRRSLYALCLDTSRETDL

This test concerns the target human Kv1.5 channel (Homo sapiens, UniProt P22460). As to the kind of experiment: Test A: Rb+ efflux assay. The class given is cell-based. The following applies: CHO cells stably transfected with cDNA for human Kv1.5. Here is the method:
This assay identifies compounds that block the human Kv1.5 channel potassium channel heterologously expressed in Chinese Hamster Ovary (CHO) cells by means of Rb+ ion efflux using Flame Atomic Absorption Spectroscopy. For experimental studies, CHO cells stably transfected with cDNA for human Kv1.5 were grown as confluent layers in Falcon, 384-well tissue culture-treated black-walled clear-bottomed plates and the plates were incubated overnight at 37° C. in a cell culture incubator.
After incubating overnight the cell plates were washed and a buffer containing Rb+ ions were added to the cell plates. The plates were then incubated for another 3-4 hours in a CO2-incubator (37° C.). Following this incubation period plates were washed, compounds were added and subsequently a buffer containing elevated K+ concentrations were added in order to activate the Kv1.5 channel. Following a short incubation time, aliquots of the supernatants were transferred to supernatant plates for subsequent determination of the Rb+ content using Atomic Absorption Spectrometry (ICR8000 instrument, Aurora Biomed Inc.).
For the compound `CC(C)(C)NC(=O)C1c2ccccc2C(=O)N1Cc1cc(F)ccc1-c1ccccc1` (centres unmarked) [N-(tert-butyl)-2-[(4-fluorobiphenyl-2-yl)methyl]-3-oxoisoindoline-1-carboxamide], the IC50 (in general, the concentration needed to halve the response being measured) came to 5.2 µM. Next, `CC(C)(C)NC(=O)C1c2ccccc2C(=O)N1Cc1ccc(F)cc1-c1ccc(F)cc1` (centres unmarked) [N-(tert-butyl)-2-[(4′,5-difluorobiphenyl-2-yl)methyl]-3-oxoisoindoline-1-carboxamide]: 9.3 µM; `CC(C)(C)NC(=O)C1c2ccccc2C(=O)N1Cc1ccccc1-c1ccc(F)cc1` (centres unmarked) [N-(tert-butyl)-2-[(4′-fluorobiphenyl-2-yl)methyl]-3-oxoisoindoline-1-carboxamide]: 7.3 µM; `CC(C)(C)NC(=O)C1c2ccccc2C(=O)N1Cc1ccc(F)cc1-c1ccccc1` (centres unmarked) [N-(tert-butyl)-2-[(5-fluorobiphenyl-2-yl)methyl]-3-oxoisoindoline-1-carboxamide]: 13 µM. Next, `CC(C)(C)NC(=O)C1c2ccccc2C(=O)N1Cc1ccccc1C(F)(F)F` (centres unmarked) [N-(tert-butyl)-3-oxo-2-[2-(trifluoromethyl)benzyl]isoindoline-1-carboxamide]: 1.9 µM. For `CC(CN1C(=O)c2cc(Cl)c(Cl)cc2C1C(=O)NC(C)(C)C)c1ccc(Cl)cc1` (centres unmarked) [N-(tert-butyl)-5,6-dichloro-2-[2-(4-chlorophenyl)propyl]-3-oxoisoindoline-1-carboxamide], the IC50 was determined as 1.8 µM. Next, `Cc1c(O)ccc2c1C(=O)N(Cc1ccccc1Oc1ccc(C(F)(F)F)cc1)C2C(=O)NC(C)(C)C` (centres unmarked) [N-(tert-butyl)-5-hydroxy-4-methyl-3-oxo-2-{2-[4-(trifluoromethyl)phenoxy]benzyl}isoindoline-1-carboxamide]: 2 µM; `CC(C)(C)NC(=O)C1c2cc(Cl)ccc2C(=O)N1C(c1ccccc1)c1ccccc1` (centres unmarked) [N-(tert-butyl)-6-chloro-2-(diphenylmethyl)-3-oxoisoindoline-1-carboxamide]: 2.8 µM; `CC(CN1C(=O)c2ccc(Cl)cc2C1C(=O)NC(C)(C)C)c1ccc(Cl)cc1` (centres unmarked) [N-(tert-butyl)-6-chloro-2-[2-(4-chlorophenyl)propyl]-3-oxoisoindoline-1-carboxamide]: 0.91 µM. Next, `CC(C)(C)NC(=O)C1c2cc(Cl)ccc2C(=O)N1Cc1ccccc1C(F)(F)F` (centres unmarked) [N-(tert-butyl)-6-chloro-3-oxo-2-[2-(trifluoromethyl)benzyl]isoindoline-1-carboxamide]: 1.1 µM. `CC(C)(C)CN1C(=O)c2ccccc2C1C(=O)NCc1cccc(OC(F)F)c1` (centres unmarked) [N-[3-(difluoromethoxy)benzyl]-2-(2,2-dimethylpropyl)-3-oxoisoindoline-1-carboxamide]: the half-maximal inhibitory concentration (IC50) came to 1.3 µM.

In turn, `CC(C)(C)CCN1C(=O)c2ccccc2C1C(=O)NCc1cccc(OC(F)F)c1` (centres unmarked) [N-[3-(difluoromethoxy)benzyl]-2-(3,3-dimethylbutyl)-3-oxoisoindoline-1-carboxamide] registered a half-inhibitory concentration (IC50) of 1.8 µM.

In turn, `CC(c1ccccc1)N1C(=O)c2ccccc2C1C(=O)NCc1cccc(OC(F)F)c1` (centres unmarked) [N-[3-(difluoromethoxy)benzyl]-3-oxo-2-(1-phenylethyl)isoindoline-1-carboxamide] showed a half-maximal inhibitory concentration (IC50) of 2.4 µM. As for `CC(C)(CO)CN1C(=O)c2ccc(F)cc2C1C(=O)NCc1cccc(OC(F)F)c1` (centres unmarked) [N-[3-(difluoromethoxy)benzyl]-6-fluoro-2-(3-hydroxy-2,2-dimethylpropyl)-3-oxoisoindoline-1-carboxamide], the figure is 1.4 µM. Next, `CC(C)(c1ccccc1)N1C(=O)c2ccccc2C1C(=O)NCc1ccccc1` (centres unmarked) [N-benzyl-2-(1-methyl-1-phenylethyl)-3-oxoisoindoline-1-carboxamide]: 1.7 µM; `O=C(NCc1ccccc1)C1c2ccccc2C(=O)N1Cc1ccccc1Br` (centres unmarked) [N-benzyl-2-(2-bromobenzyl)-3-oxoisoindoline-1-carboxamide]: 2.5 µM. The compound `O=C(NCc1ccccc1)C1c2ccccc2C(=O)N1CCC1=CCCCC1` (centres unmarked) [N-benzyl-2-(2-cyclohex-1-en-1-ylethyl)-3-oxoisoindoline-1-carboxamide] showed an IC50 of 1.8 µM.
